IC50 data for 24 molecules are collected here from patent US20260158009A1 (GENZYME CORPORATION, priority 2023, published 2026).

One experiment relates to U937 cells. In words: Cellular assay in U937 cells: activity of RIPK1 inhibitors on TNFα/zVAD.fmk-induced cell death (necroptosis), CellTiter 96 AQueous (MTS) readout. Type of experiment: cell-based. As to conditions: Homo sapiens, U-937. The method, boiled down:
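Necroptosis was measured by viable-cell MTS reduction (4 h, absorbance 490 nm) after overnight (18–24 h) 37° C culture. Cell suspensions of U937 cells carried TNFα (100 ng/ml) plus zVAD.fmk (50 μM) before compound was added. A 10-point curve (10 μM–0.26 nM or 1 μM–0.07 nM) was run in duplicate, normalised to the control lacking TNFα/zVAD.fmk.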

Experiment [1] has as its target T1, hRIPK1 (aa 1-375) fusion protein (Homo sapiens, UniProt Q13546).
T1 construct: hRIPK1 (aa 1-375) fusion protein
T1 sequence (Q13546 1-375): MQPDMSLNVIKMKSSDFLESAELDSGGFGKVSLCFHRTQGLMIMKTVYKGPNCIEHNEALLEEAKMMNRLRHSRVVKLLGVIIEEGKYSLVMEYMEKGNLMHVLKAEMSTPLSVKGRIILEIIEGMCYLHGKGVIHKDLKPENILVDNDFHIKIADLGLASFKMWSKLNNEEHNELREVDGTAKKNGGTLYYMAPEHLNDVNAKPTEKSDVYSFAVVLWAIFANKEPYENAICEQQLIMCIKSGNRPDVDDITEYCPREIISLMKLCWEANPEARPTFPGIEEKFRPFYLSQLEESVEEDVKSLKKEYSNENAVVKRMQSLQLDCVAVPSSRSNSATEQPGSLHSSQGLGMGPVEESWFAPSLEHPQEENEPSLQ
In words: ADP-Glo kinase assay: catalytic activity of RIPK1 (autophosphorylation, conversion of ATP to ADP). In kind it is biochemical. In a few lines: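 hRIPK1 (aa 1-375) fusion protein (3.6 μg/ml final) was preincubated 30 min at rt with compound (33300-1.69 nM, 1% DMSO), then 50 μM ATP was added for 240 min at rt. ADP from autophosphorylation was measured by ADP-Glo luminescence and curves fitted by nonlinear regression.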

Regarding `O=C1NCc2ccc(C[C@H]3CC[C@H](C(=O)N4OCC[C@H]4c4cc(F)cc(F)c4)CC3)cc21` [compound 156, trans-6-[[4-[(3S)-3-(3,5-difluorophenyl)isoxazolidine-2-carbonyl]cyclohexyl]methyl]isoindolin-1-one], the IC50 in the experiment on U937 cells was found to be 6 nM; in experiment [1], 16 nM.
Consider `Cc1ncn(C[C@H]2CC[C@H](C(=O)N3OCC[C@H]3c3cc(F)cc(C#N)c3)CC2)c1C` [compound 82, trans-3-((S)-2-(4-((4,5-dimethyl-1H-imidazol-1-yl)methyl)cyclohexane-1-carbonyl)isoxazolidin-3-yl)-5-fluorobenzonitrile], for which the IC50 came out at 136 nM in the experiment on U937 cells and 67 nM in experiment [1].
For `O=C([C@H]1CC[C@H](Cn2cnc3cc(F)ccc32)CC1)N1OCC[C@H]1c1cnccn1` [compound 92, trans-(4-((5-fluoro-1H-benzo[d]imidazol-1-yl)methyl)cyclohexyl)((S)-3-(pyrazin-2-yl)isoxazolidin-2-yl)methanone] the same measures were 132 nM and 75 nM.
Taken in the same sequence, the figures for `Cc1nc2c(F)cc(C[C@H]3CC[C@H](C(=O)N4OCC[C@H]4c4cc(F)cc(F)c4)CC3)cn2n1` [compound 285, trans-[(3S)-3-(3,5-difluorophenyl)isoxazolidin-2-yl]-[4-[(8-fluoro-2-methyl-[1,2,4]triazolo[1,5-a]pyridin-6-yl)methyl]cyclohexyl]methanone] were 10 nM and 11 nM.
With `Cc1cc(C[C@H]2CC[C@H](C(=O)N3OCC[C@H]3c3csc(C)n3)CC2)c(C)cn1` [compound 366, trans-[4-(2,5-Dimethyl-pyridin-4-ylmethyl)-cyclohexyl]-[(S)-3-(2-methyl-thiazol-4-yl)-isoxazolidin-2-yl]-methanone], the values for the IC50 (in the experiment with U937 cells; in experiment [1]) were 11 nM and 40 nM, respectively.
For `NC(=O)c1cnc2cnn(C[C@H]3CC[C@H](C(=O)N4OCC[C@H]4c4cc(F)cc(F)c4)CC3)c2c1` [compound 79, trans-1-((4-((S)-3-(3,5-difluorophenyl)isoxazolidine-2-carbonyl)cyclohexyl)methyl)-1H-pyrazolo[4,3-b]pyridine-6-carboxamide] the same measures were 13 nM and 22 nM.
For `O=C([C@H]1CC[C@H](Cn2ccc3cc(F)ccc32)CC1)N1OCC[C@H]1c1cc(F)cc(F)c1` [compound 96, trans-((S)-3-(3,5-difluorophenyl)isoxazolidin-2-yl)(4-((5-fluoro-1H-indol-1-yl)methyl)cyclohexyl)methanone] the same measures were 2 nM and 16 nM.
On to `Cc1nc([C@@H]2CCON2C(=O)[C@H]2CC[C@H](Cn3cc4ccc(C#N)cc4n3)CC2)cs1` [compound 203, trans-2-[[4-[(3S)-3-(2-methylthiazol-4-yl)isoxazolidine-2-carbonyl]cyclohexyl]methyl]indazole-6-carbonitrile], for which the IC50 is 432 nM in the experiment with U937 cells and 125 nM in experiment [1].
On to `Cc1ccc([C@@H]2CCON2C(=O)[C@H]2CC[C@H](Cc3ccc(C)nn3)CC2)cn1` [compound 387, trans-[4-[(6-methylpyridazin-3-yl)methyl]cyclohexyl]-[(3S)-3-(6-methylpyridin-3-yl)-1,2-oxazolidin-2-yl]methanone], for which the IC50 in the experiment with U937 cells was 1880 nM; in experiment [1], 995 nM.
Taken in the same sequence, the figures for `N#Cc1cc2c(cc1F)ncn2C[C@H]1CC[C@H](C(=O)N2OCC[C@H]2c2cnccn2)CC1` [compound 98, trans-5-fluoro-1-((4-((S)-3-(pyrazin-2-yl)isoxazolidine-2-carbonyl)cyclohexyl)methyl)-1H-benzo[d]imidazole-6-carbonitrile] were 84 nM and 32 nM.
With `Cc1ccc([C@@H]2CCON2C(=O)[C@H]2CC[C@H](Cc3cnc4cnn(C)c4c3)CC2)cn1` [compound 329, trans-[4-[(1-methylpyrazolo[4,3-b]pyridin-6-yl)methyl]cyclohexyl]-[(3S)-3-(6-methylpyridin-3-yl)-1,2-oxazolidin-2-yl]methanone], the IC50 in the experiment on U937 cells is 82 nM; in experiment [1], 44 nM.
Taken in the same sequence, the figures for `Cc1nnc2c(F)cc(C[C@H]3CC[C@H](C(=O)N4OCC[C@H]4c4ccc(F)cc4)CC3)cn12` [compound 320, trans-[4-[(8-fluoro-3-methyl-[1,2,4]triazolo[4,3-a]pyridin-6-yl)methyl]cyclohexyl]-[(3S)-3-(4-fluorophenyl)isoxazolidin-2-yl]methanone] were 28 nM and 37 nM.
For `Cc1ccc([C@@H]2CCON2C(=O)[C@H]2CC[C@H](Cc3cc(C)c4ncnn4c3)CC2)cn1` [compound 347, trans-[(3S)-3-(6-methylpyridin-3-yl)-1,2-oxazolidin-2-yl]-[4-[(8-methyl-[1,2,4]triazolo[1,5-a]pyridin-6-yl)methyl]cyclohexyl]methanone] the same measures were 59 nM and 46 nM.
For `N#Cc1cc2c(cc1F)ncn2C[C@H]1CC[C@H](C(=O)N2OCC[C@H]2c2cc(F)cc(F)c2)CC1` [compound 12, trans-1-((4-((S)-3-(3,5-difluorophenyl)isoxazolidine-2-carbonyl)cyclohexyl)methyl)-5-fluoro-1H-benzo[d]imidazole-6-carbonitrile] the same measures were 3 nM and 33 nM.
On to `Cc1nn(C[C@H]2CC[C@H](C(=O)N3OCC[C@H]3c3cc(F)cc(C#N)c3)CC2)c2cc(C#N)c(F)cc12` [compound 85, trans-1-((4-((S)-3-(3-cyano-5-fluorophenyl)isoxazolidine-2-carbonyl)cyclohexyl)methyl)-5-fluoro-3-methyl-1H-indazole-6-carbonitrile], for which the IC50 in the experiment with U937 cells came to 3 nM; in experiment [1], 21 nM.
For `N#Cc1cnc2cnn(C[C@H]3CC[C@H](C(=O)N4OCC[C@H]4c4ccccn4)CC3)c2c1` [compound 187, trans-1-[[4-[(3S)-3-(2-pyridyl)isoxazolidine-2-carbonyl]cyclohexyl]methyl]pyrazolo[4,3-b]pyridine-6-carbonitrile] the same measures were 121 nM and 51 nM.
For `Cc1cc(C[C@H]2CC[C@H](C(=O)N3OCC[C@H]3c3cc(F)cc(C#N)c3)CC2)nc(C)n1` [compound 312, 3-[(3S)-2-[4-[(2,6-dimethylpyrimidin-4-yl)methyl]cyclohexanecarbonyl]isoxazolidin-3-yl]-5-fluoro-benzonitrile] the same measures were 20 nM and 38 nM.
Turning to `Cc1nccn1-c1cc(F)cc(C[C@H]2CC[C@H](C(=O)N3OCC[C@H]3c3ccc(F)cc3)CC2)c1` [compound 207, trans-[4-[[3-fluoro-5-(2-methylimidazol-1-yl)phenyl]methyl]cyclohexyl]-[(3S)-3-(4-fluorophenyl)isoxazolidin-2-yl]methanone], the IC50 was found to be 53 nM in the experiment with U937 cells and 23 nM in experiment [1].
For `N#Cc1cc(F)cc([C@@H]2CCON2C(=O)[C@H]2CC[C@H](Cn3cnc4cc(C#N)ccc43)CC2)c1` [compound 5, trans-1-((4-((S)-3-(3-cyano-5-fluorophenyl)isoxazolidine-2-carbonyl)cyclohexyl)methyl)-1H-benzo[d]imidazole-5-carbonitrile] the same measures were 244 nM and 45 nM.
`Cc1nc2cc(F)ccc2n1C[C@H]1CC[C@H](C(=O)N2OCC[C@H]2c2cc(F)cc(F)c2)CC1` [compound 51, trans-((S)-3-(3,5-difluorophenyl)isoxazolidin-2-yl)(4-((5-fluoro-2-methyl-1H-benzo[d]imidazol-1-yl)methyl)cyclohexyl)methanone]: the figures for the IC50 (in the experiment with U937 cells; in experiment [1]) were 17 nM and 34 nM, respectively.
Taken in the same sequence, the figures for `Cc1nn(C[C@H]2CC[C@H](C(=O)N3OCC[C@H]3c3cc(F)cc(F)c3)CC2)c2cc(C#N)c(F)cc12` [compound 84] were 4 nM and 13 nM.
For `N#Cc1ccc2cnn(C[C@H]3CC[C@H](C(=O)N4OCC[C@H]4c4cc(F)cc(F)c4)CC3)c2c1` [compound 29, trans-1-((4-((S)-3-(3,5-difluorophenyl)isoxazolidine-2-carbonyl)cyclohexyl)methyl)-1H-indazole-6-carbonitrile] the same measures were 1 nM and 12 nM.
In the case of `O=C([C@H]1CC[C@H](Cn2ccc3ncc(Cl)cc32)CC1)N1OCC[C@H]1c1cc(F)cc(F)c1` [compound 21, trans-(4-((6-chloro-1H-pyrrolo[3,2-b]pyridin-1-yl)methyl)cyclohexyl)((S)-3-(3,5-difluorophenyl)isoxazolidin-2-yl)methanone], the IC50 in the experiment on U937 cells was determined as 5 nM; in experiment [1] it was 25 nM.
With `Cc1cn2cc(C[C@H]3CC[C@H](C(=O)N4OCC[C@H]4c4cnccn4)CC3)cc(F)c2n1` [compound 350, trans-[4-(8-Fluoro-2-methyl-imidazo[1,2-a]pyridin-6-ylmethyl)-cyclohexyl]-((S)-3-pyrazin-2-yl-isoxazolidin-2-yl)-methanone], the IC50 in the experiment with U937 cells was 34 nM; in experiment [1] it was 63 nM.
